Patent US20230017045A1, “PYRIDINE AND PYRIMIDINE CARBOXYLATE HERBICIDES AND METHODS OF USE THEREOF” (Dow AgroSciences LLC, priority 2017, published 2023)

These compounds were tested on test plant species (assay: Post-emergent herbicidal activity test (greenhouse, foliar spray, visual growth reduction)). Details: post-emergence, 336 h, ECHCG: barnyardgrass (Echinochloa crus-galli), 140 g ai/ha, 14 days after application, read-out: Visual Growth Reduction (%) 14 Days After Application, ECHCG.
Format: in vivo
Procedure, shortened: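 Visual percent injury (0-100) rated 14 d after treatment, relative to nontreated and solvent-blank plants. Test plants at first or second true leaf stage received an overhead track-sprayer application at 187 L/ha. Compounds were formulated in aqueous acetone/DMSO carrier containing crop oil concentrate and X-77 surfactant.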

| Structure (SMILES) | pest or weed control at 140 g/ha [%] |
| --- | --- |
| COc1cc(-c2nc(C(=O)O)c(Cl)cc2F)c(Cl)cc1C(F)(F)F [F337, 3-Chloro-6-(2-chloro-5-methoxy-4-(trifluoromethyl)phenyl)-5-fluoropicolinic acid] | 60 to 74 |
| COc1cc2c(cc1-c1ccc(Cl)c(C(=O)O)n1)OC(F)(F)O2 [F356, 3-Chloro-6-(2,2-difluoro-6-methoxybenzo[d][1,3]dioxol-5-yl)picolinic acid] | 0 to 29 |
| COC(=O)c1nc(-c2ccc(O)cc2Cl)ccc1Cl [F355, methyl 3-chloro-6-(2-chloro-4-hydroxyphenyl)picolinate] | 0 to 29 |

Same assay, conditions: post-emergence, 336 h, IPOHE: ivy-leaf morning glory (Ipomoea hederacea), 140 g ai/ha, 14 days after application, read-out: Visual Growth Reduction (%) 14 Days After Application, IPOHE

| Structure (SMILES) | pest or weed control at 140 g/ha [%] |
| --- | --- |
| COc1cc(-c2nc(C(=O)O)c(Cl)cc2F)c(Cl)cc1C(F)(F)F [F337, 3-Chloro-6-(2-chloro-5-methoxy-4-(trifluoromethyl)phenyl)-5-fluoropicolinic acid] | 95 to 100 |
| COc1cc2c(cc1-c1ccc(Cl)c(C(=O)O)n1)OC(F)(F)O2 [F356, 3-Chloro-6-(2,2-difluoro-6-methoxybenzo[d][1,3]dioxol-5-yl)picolinic acid] | 95 to 100 |
| COC(=O)c1nc(-c2ccc(O)cc2Cl)ccc1Cl [F355, methyl 3-chloro-6-(2-chloro-4-hydroxyphenyl)picolinate] | 0 to 29 |

Same assay, conditions: post-emergence, 336 h, KCHSC: kochia (Bassia scoparia), 140 g ai/ha, 14 days after application, read-out: Visual Growth Reduction (%) 14 Days After Application, KCHSC

| Structure (SMILES) | pest or weed control at 140 g/ha [%] |
| --- | --- |
| COc1cc(-c2nc(C(=O)O)c(Cl)cc2F)c(Cl)cc1C(F)(F)F [F337, 3-Chloro-6-(2-chloro-5-methoxy-4-(trifluoromethyl)phenyl)-5-fluoropicolinic acid] | 85 to 94 |
| COc1cc2c(cc1-c1ccc(Cl)c(C(=O)O)n1)OC(F)(F)O2 [F356, 3-Chloro-6-(2,2-difluoro-6-methoxybenzo[d][1,3]dioxol-5-yl)picolinic acid] | 0 to 29 |
| COC(=O)c1nc(-c2ccc(O)cc2Cl)ccc1Cl [F355, methyl 3-chloro-6-(2-chloro-4-hydroxyphenyl)picolinate] | 0 to 29 |

Same assay, conditions: post-emergence, 336 h, ORYSA: rice (Oryza sativa), 140 g ai/ha, 14 days after application, read-out: Visual Growth Reduction (%) 14 Days After Application, ORYSA

| Structure (SMILES) | pest or weed control at 140 g/ha [%] |
| --- | --- |
| COc1cc(-c2nc(C(=O)O)c(Cl)cc2F)c(Cl)cc1C(F)(F)F [F337, 3-Chloro-6-(2-chloro-5-methoxy-4-(trifluoromethyl)phenyl)-5-fluoropicolinic acid] | 0 to 29 |
| COc1cc2c(cc1-c1ccc(Cl)c(C(=O)O)n1)OC(F)(F)O2 [F356, 3-Chloro-6-(2,2-difluoro-6-methoxybenzo[d][1,3]dioxol-5-yl)picolinic acid] | 0 to 29 |
| COC(=O)c1nc(-c2ccc(O)cc2Cl)ccc1Cl [F355, methyl 3-chloro-6-(2-chloro-4-hydroxyphenyl)picolinate] | 0 to 29 |

Same assay, conditions: post-emergence, 336 h, SETFA: giant foxtail (Setaria faberi), 140 g ai/ha, 14 days after application, read-out: Visual Growth Reduction (%) 14 Days After Application, SETFA

| Structure (SMILES) | pest or weed control at 140 g/ha [%] |
| --- | --- |
| COc1cc(-c2nc(C(=O)O)c(Cl)cc2F)c(Cl)cc1C(F)(F)F [F337, 3-Chloro-6-(2-chloro-5-methoxy-4-(trifluoromethyl)phenyl)-5-fluoropicolinic acid] | 85 to 94 |
| COc1cc2c(cc1-c1ccc(Cl)c(C(=O)O)n1)OC(F)(F)O2 [F356, 3-Chloro-6-(2,2-difluoro-6-methoxybenzo[d][1,3]dioxol-5-yl)picolinic acid] | 0 to 29 |
| COC(=O)c1nc(-c2ccc(O)cc2Cl)ccc1Cl [F355, methyl 3-chloro-6-(2-chloro-4-hydroxyphenyl)picolinate] | 0 to 29 |

Same assay, conditions: post-emergence, 336 h, SORVU: grain sorghum (Sorghum vulgare), 140 g ai/ha, 14 days after application, read-out: Visual Growth Reduction (%) 14 Days After Application, SORVU

| Structure (SMILES) | pest or weed control at 140 g/ha [%] |
| --- | --- |
| COc1cc(-c2nc(C(=O)O)c(Cl)cc2F)c(Cl)cc1C(F)(F)F [F337, 3-Chloro-6-(2-chloro-5-methoxy-4-(trifluoromethyl)phenyl)-5-fluoropicolinic acid] | 75 to 84 |
| COc1cc2c(cc1-c1ccc(Cl)c(C(=O)O)n1)OC(F)(F)O2 [F356, 3-Chloro-6-(2,2-difluoro-6-methoxybenzo[d][1,3]dioxol-5-yl)picolinic acid] | 30 to 44 |
| COC(=O)c1nc(-c2ccc(O)cc2Cl)ccc1Cl [F355, methyl 3-chloro-6-(2-chloro-4-hydroxyphenyl)picolinate] | 0 to 29 |

Same assay, conditions: post-emergence, 336 h, STEME: common chickweed (Stellaria media), 140 g ai/ha, 14 days after application, read-out: Visual Growth Reduction (%) 14 Days After Application, STEME

| Structure (SMILES) | pest or weed control at 140 g/ha [%] |
| --- | --- |
| COc1cc(-c2nc(C(=O)O)c(Cl)cc2F)c(Cl)cc1C(F)(F)F [F337, 3-Chloro-6-(2-chloro-5-methoxy-4-(trifluoromethyl)phenyl)-5-fluoropicolinic acid] | 0 to 29 |
| COc1cc2c(cc1-c1ccc(Cl)c(C(=O)O)n1)OC(F)(F)O2 [F356, 3-Chloro-6-(2,2-difluoro-6-methoxybenzo[d][1,3]dioxol-5-yl)picolinic acid] | 0 to 29 |
| COC(=O)c1nc(-c2ccc(O)cc2Cl)ccc1Cl [F355, methyl 3-chloro-6-(2-chloro-4-hydroxyphenyl)picolinate] | 0 to 29 |

Same assay, conditions: post-emergence, 336 h, TRZAS: wheat, spring (Triticum aestivum), 140 g ai/ha, 14 days after application, read-out: Visual Growth Reduction (%) 14 Days After Application, TRZAS

| Structure (SMILES) | pest or weed control at 140 g/ha [%] |
| --- | --- |
| COc1cc(-c2nc(C(=O)O)c(Cl)cc2F)c(Cl)cc1C(F)(F)F [F337, 3-Chloro-6-(2-chloro-5-methoxy-4-(trifluoromethyl)phenyl)-5-fluoropicolinic acid] | 30 to 44 |
| COc1cc2c(cc1-c1ccc(Cl)c(C(=O)O)n1)OC(F)(F)O2 [F356, 3-Chloro-6-(2,2-difluoro-6-methoxybenzo[d][1,3]dioxol-5-yl)picolinic acid] | 0 to 29 |
| COC(=O)c1nc(-c2ccc(O)cc2Cl)ccc1Cl [F355, methyl 3-chloro-6-(2-chloro-4-hydroxyphenyl)picolinate] | 0 to 29 |

Same assay, conditions: post-emergence, 336 h, blackgrass (Alopecurus myosuroides), 14 Days After Application, 140 g ai/ha, read-out: Visual Growth Reduction (%) ALOMY

| Structure (SMILES) | pest or weed control at 140 g/ha [%] |
| --- | --- |
| COc1cc(-c2nc(C(=O)O)c(Cl)cc2F)c(Cl)cc1C(F)(F)F [F337, 3-Chloro-6-(2-chloro-5-methoxy-4-(trifluoromethyl)phenyl)-5-fluoropicolinic acid] | 0 to 29 |
| COc1cc2c(cc1-c1ccc(Cl)c(C(=O)O)n1)OC(F)(F)O2 [F356, 3-Chloro-6-(2,2-difluoro-6-methoxybenzo[d][1,3]dioxol-5-yl)picolinic acid] | 0 to 29 |
| COC(=O)c1nc(-c2ccc(O)cc2Cl)ccc1Cl [F355, methyl 3-chloro-6-(2-chloro-4-hydroxyphenyl)picolinate] | 0 to 29 |

Same assay, conditions: post-emergence, 336 h, canada thistle (Cirsium arvense), 14 Days After Application, 140 g ai/ha, read-out: Visual Growth Reduction (%) CIRAR

| Structure (SMILES) | pest or weed control at 140 g/ha [%] |
| --- | --- |
| COc1cc2c(cc1-c1ccc(Cl)c(C(=O)O)n1)OC(F)(F)O2 [F356, 3-Chloro-6-(2,2-difluoro-6-methoxybenzo[d][1,3]dioxol-5-yl)picolinic acid] | 0 to 29 |
| COC(=O)c1nc(-c2ccc(O)cc2Cl)ccc1Cl [F355, methyl 3-chloro-6-(2-chloro-4-hydroxyphenyl)picolinate] | 75 to 84 |

Same assay, conditions: post-emergence, 336 h, crabgrass (Digitaria sanguinalis), 14 Days After Application, 140 g ai/ha, read-out: Visual Growth Reduction (%) DIGSA

| Structure (SMILES) | pest or weed control at 140 g/ha [%] |
| --- | --- |
| COc1cc(-c2nc(C(=O)O)c(Cl)cc2F)c(Cl)cc1C(F)(F)F [F337, 3-Chloro-6-(2-chloro-5-methoxy-4-(trifluoromethyl)phenyl)-5-fluoropicolinic acid] | 45 to 59 |
| COc1cc2c(cc1-c1ccc(Cl)c(C(=O)O)n1)OC(F)(F)O2 [F356, 3-Chloro-6-(2,2-difluoro-6-methoxybenzo[d][1,3]dioxol-5-yl)picolinic acid] | 0 to 29 |
| COC(=O)c1nc(-c2ccc(O)cc2Cl)ccc1Cl [F355, methyl 3-chloro-6-(2-chloro-4-hydroxyphenyl)picolinate] | 0 to 29 |

Same assay, conditions: post-emergence, 336 h, lambsquarters (Chenopodium album), 14 Days After Application, 140 g ai/ha, read-out: Visual Growth Reduction (%) CHEAL

| Structure (SMILES) | pest or weed control at 140 g/ha [%] |
| --- | --- |
| COc1cc(-c2nc(C(=O)O)c(Cl)cc2F)c(Cl)cc1C(F)(F)F [F337, 3-Chloro-6-(2-chloro-5-methoxy-4-(trifluoromethyl)phenyl)-5-fluoropicolinic acid] | 75 to 84 |
| COc1cc2c(cc1-c1ccc(Cl)c(C(=O)O)n1)OC(F)(F)O2 [F356, 3-Chloro-6-(2,2-difluoro-6-methoxybenzo[d][1,3]dioxol-5-yl)picolinic acid] | 60 to 74 |
| COC(=O)c1nc(-c2ccc(O)cc2Cl)ccc1Cl [F355, methyl 3-chloro-6-(2-chloro-4-hydroxyphenyl)picolinate] | 0 to 29 |

Same assay, conditions: post-emergence, 336 h, redroot pigweed (Amaranthus retroflexus), 14 Days After Application, 140 g ai/ha, read-out: Visual Growth Reduction (%) AMARE

| Structure (SMILES) | pest or weed control at 140 g/ha [%] |
| --- | --- |
| COc1cc(-c2nc(C(=O)O)c(Cl)cc2F)c(Cl)cc1C(F)(F)F [F337, 3-Chloro-6-(2-chloro-5-methoxy-4-(trifluoromethyl)phenyl)-5-fluoropicolinic acid] | 30 to 44 |
| COc1cc2c(cc1-c1ccc(Cl)c(C(=O)O)n1)OC(F)(F)O2 [F356, 3-Chloro-6-(2,2-difluoro-6-methoxybenzo[d][1,3]dioxol-5-yl)picolinic acid] | 0 to 29 |
| COC(=O)c1nc(-c2ccc(O)cc2Cl)ccc1Cl [F355, methyl 3-chloro-6-(2-chloro-4-hydroxyphenyl)picolinate] | 0 to 29 |

Same assay, conditions: post-emergence, 336 h, wild oat (Avena fatua), 14 Days After Application, 140 g ai/ha, read-out: Visual Growth Reduction (%) AVEFA

| Structure (SMILES) | pest or weed control at 140 g/ha [%] |
| --- | --- |
| COc1cc(-c2nc(C(=O)O)c(Cl)cc2F)c(Cl)cc1C(F)(F)F [F337, 3-Chloro-6-(2-chloro-5-methoxy-4-(trifluoromethyl)phenyl)-5-fluoropicolinic acid] | 0 to 29 |
| COc1cc2c(cc1-c1ccc(Cl)c(C(=O)O)n1)OC(F)(F)O2 [F356, 3-Chloro-6-(2,2-difluoro-6-methoxybenzo[d][1,3]dioxol-5-yl)picolinic acid] | 0 to 29 |
| COC(=O)c1nc(-c2ccc(O)cc2Cl)ccc1Cl [F355, methyl 3-chloro-6-(2-chloro-4-hydroxyphenyl)picolinate] | 0 to 29 |

Same assay, conditions: post-emergence, 336 h, yellow nutsedge (Cyperus esculentus), 14 Days After Application, 140 g ai/ha, read-out: Visual Growth Reduction (%) CYPES

| Structure (SMILES) | pest or weed control at 140 g/ha [%] |
| --- | --- |
| COc1cc(-c2nc(C(=O)O)c(Cl)cc2F)c(Cl)cc1C(F)(F)F [F337, 3-Chloro-6-(2-chloro-5-methoxy-4-(trifluoromethyl)phenyl)-5-fluoropicolinic acid] | 0 to 29 |
| COc1cc2c(cc1-c1ccc(Cl)c(C(=O)O)n1)OC(F)(F)O2 [F356, 3-Chloro-6-(2,2-difluoro-6-methoxybenzo[d][1,3]dioxol-5-yl)picolinic acid] | 0 to 29 |
| COC(=O)c1nc(-c2ccc(O)cc2Cl)ccc1Cl [F355, methyl 3-chloro-6-(2-chloro-4-hydroxyphenyl)picolinate] | 0 to 29 |
